Key:
[1] = test system: antibodies in sera from SARS patients (sera 1a, 1b, 2, 6, 37, 62, London, SARS-yellow, SARS-green); assay type: binding, human; design: Binding of serum 6 to linear peptides of protein X1 of SARS-CoV Urbani / Binding of serum 37 to linear peptides of protein X1 of SARS-CoV Urbani / Binding of serum 6 to looped/cyclic peptide (PEPSCAN-ELISA) / Binding of serum 37 to looped/cyclic peptide (PEPSCAN-ELISA) / Binding of serum 37 to looped/cyclic peptides of protein X1 of SARS-CoV Urbani / Binding of serum 6 to linear peptides of protein X2 / Binding of serum 37 to linear peptides of protein X2 / Binding of serum 37 to looped/cyclic peptides of protein X2 of SARS-CoV Urbani / Binding of serum 6 to linear peptides of protein M of SARS-CoV Urbani / Binding of serum 37 to linear peptides of protein M of SARS-CoV Urbani / Binding of serum 6 to looped/cyclic peptides of protein M of SARS-CoV Urbani / Binding of serum 37 to looped/cyclic peptides of protein M of SARS-CoV Urbani / Binding of serum 6 to linear peptides of protein X3 of SARS-CoV Urbani / Binding of serum 37 to linear peptides of protein X3 of SARS-CoV Urbani / Binding of serum 37 to looped/cyclic peptides of protein X3 of SARS-CoV Urbani / Binding of serum 6 to linear peptides of protein X4 of SARS-CoV Urbani / Binding of serum 37 to linear peptides of protein X4 of SARS-CoV Urbani / Binding of serum 37 to looped/cyclic peptides of protein X4 of SARS-CoV Urbani / Binding of serum 6 to linear peptides of protein X5 of SARS-CoV Urbani / Binding of serum 37 to linear peptides of protein X5 of SARS-CoV Urbani / Binding of serum 37 to looped/cyclic peptides of protein X5 of SARS-CoV Urbani / Binding of serum 6 to linear peptides of protein N of SARS-CoV Urbani / Binding of serum 37 to linear peptides of protein N of SARS-CoV Urbani / Binding of serum 6 to linear peptide (PEPSCAN-ELISA) / Binding of serum 1a to looped/cyclic peptides of protein N of SARS-CoV Urbani / Binding of serum 1b to looped/cyclic peptides of protein N of SARS-CoV Urbani / Binding of serum 2 to looped/cyclic peptides of protein N of SARS-CoV Urbani / Binding of serum 6 to looped/cyclic peptides of protein N of SARS-CoV Urbani / Binding of serum 37 to looped/cyclic peptides of protein N of SARS-CoV Urbani / Binding of serum 62 to looped/cyclic peptides of protein N of SARS-CoV Urbani / Binding of serum London to looped/cyclic peptides of protein N of SARS-CoV Urbani / Binding of serum SARS-green to looped/cyclic peptides of protein N of SARS-CoV Urbani: unit not given here
[2] = test system: rabbit serum obtained by immunizing a rabbit with the SARS-CoV strain Frankfurt 1; assay type: binding; design: Binding of a rabbit serum to linear peptides / Binding of a rabbit serum to looped peptides / Rabbit serum linear peptides / Rabbit serum looped peptides / Binding of a rabbit serum to linear peptides of protein N of SARS-CoV Urbani (Rabbit serum linear peptides) / Binding of a rabbit serum to looped/cyclic peptides of protein N of SARS-CoV Urbani (Rabbit serum looped peptides): unit not given here
[3] = test system: control sera (pooled serum of ten healthy LUMC hospital workers; commercial negative donor pooled serum from the Dutch bloodbank); assay type: binding, human; design: Binding of Control serum LUMC to linear peptides / Binding of Control serum Blood-bank to linear peptides / Binding of Control serum LUMC to looped peptides / Binding of Control Serum Blood-Bank to Looped peptides / Binding of Control serum LUMC to linear peptides of the protein M of SARS-CoV Urbani / Binding of Control serum Blood-bank to linear peptides of the protein M of SARS-CoV Urbani / Binding of Control serum LUMC to looped peptides of the protein M of SARS-CoV Urbani / Binding of Control Serum Blood-Bank to Looped peptides of the protein M of SARS-CoV Urbani: unit not given here
[4] = test system: recombinant human anti-SARS-CoV antibody 03-018; assay type: binding; design: Binding of antibody 03-018 to linear peptides of the N protein of SARS-CoV Urbani / Binding of antibody 03-018 to looped/cyclic peptides of the N protein of SARS-CoV Urbani: unit not given here

| Sequence | Binding of serum 1a to linear peptides of protein N of SARS-CoV Urbani [1] | Binding of serum 1a to looped/cyclic peptides of protein N of SARS-CoV Urbani [1] | Binding of serum 1b to linear peptides of protein N of SARS-CoV Urbani [1] | Binding of serum 1b to looped/cyclic peptides of protein N of SARS-CoV Urbani [1] | Binding of serum 2 to linear peptides of protein N of SARS-CoV Urbani [1] | Binding of serum 2 to looped/cyclic peptides of protein N of SARS-CoV Urbani [1] | Binding of serum 6 to linear peptides of protein N of SARS-CoV Urbani [1] | Binding of serum 6 to looped/cyclic peptides of protein N of SARS-CoV Urbani [1] | Binding of serum 37 to linear peptides of protein N of SARS-CoV Urbani [1] | Binding of serum 37 to looped/cyclic peptides of protein N of SARS-CoV Urbani [1] | Binding of serum 62 to linear peptides of protein N of SARS-CoV Urbani [1] | Binding of serum 62 to looped/cyclic peptides of protein N of SARS-CoV Urbani [1] | Binding of serum London to linear peptides of protein N of SARS-CoV Urbani [1] | Binding of serum London to looped/cyclic peptides of protein N of SARS-CoV Urbani [1] | Binding of serum SARS-green to linear peptides of protein N of SARS-CoV Urbani [1] | Binding of serum SARS-green to looped/cyclic peptides of protein N of SARS-CoV Urbani [1] | Binding of serum SARS-yellow to linear peptides of protein N of SARS-CoV Urbani [1] | Binding of serum SARS-yellow to looped/cyclic peptides of protein N of SARS-CoV Urbani [1] | Binding of a rabbit serum to linear peptides of protein N of SARS-CoV Urbani (Rabbit serum linear peptides) [2] | Binding of a rabbit serum to looped/cyclic peptides of protein N of SARS-CoV Urbani (Rabbit serum looped peptides) [2] | also measured |
| --- | --- | --- | --- | --- | --- | --- | --- | --- | --- | --- | --- | --- | --- | --- | --- | --- | --- | --- | --- | --- | --- |
| TPSGTWLTYHGAIKL | 0.2 | 0.4 | 0.1 | 0.2 | 0.2 | 0.4 | 0.2 | 0.2 | 0.7 | 0.8 | 0.6 | 0.8 | 0.7 | 0.5 | 0.3 | 0.3 | 0.5 | 0.4 | 0.1 | 0.4 | Control Serum Blood-Bank Looped peptides [3]: 0.7; Control serum Blood-bank linear peptides [3]: 0.8; Control serum LUMC linear peptides [3]: 0.6; Control serum LUMC looped peptides [3]: 0.5; Binding of antibody 03-018 to linear peptides of the N protein of SARS-CoV Urbani [4]: 0.1; Binding of antibody 03-018 to looped/cyclic peptides of the N protein of SARS-CoV Urbani [4]: 0.2 |
| TYHGAIKLDDKDPQF | 0.3 | 0.2 | 0.1 | 0.1 | 0.1 | 0.2 | 0.2 | 0.1 | 0.8 | 0.3 | 1.1 | 0.2 | 0.6 | 0.3 | 0.4 | 0.0 | 0.7 | 0.2 | 0.1 | 0.2 | Control Serum Blood-Bank Looped peptides [3]: 0.4; Control serum Blood-bank linear peptides [3]: 0.8; Control serum LUMC linear peptides [3]: 0.7; Control serum LUMC looped peptides [3]: 0.4; Binding of antibody 03-018 to linear peptides of the N protein of SARS-CoV Urbani [4]: 0.1; Binding of antibody 03-018 to looped/cyclic peptides of the N protein of SARS-CoV Urbani [4]: 0.1 |
| VATEGALNTPKDHIG | 0.3 | 0.3 | 0.1 | 0.2 | 0.2 | 0.3 | 0.2 | 0.2 | 0.7 | 0.4 | 1.1 | 0.3 | 0.7 | 0.3 | 0.5 | 0.2 | 0.6 | 0.2 | 0.2 | 0.0 | Binding of Control Serum Blood-Bank to Looped peptides [3]: 0.5; Binding of Control serum Blood-bank to linear peptides [3]: 0.9; Binding of Control serum LUMC to linear peptides [3]: 0.9; Binding of Control serum LUMC to looped peptides [3]: 0.5; Binding of antibody 03-018 to linear peptides of the N protein of SARS-CoV Urbani [4]: 0.2; Binding of antibody 03-018 to looped/cyclic peptides of the N protein of SARS-CoV Urbani [4]: 0.2 |
| VILLNKHIDAYKTFP | 0.2 | 0.3 | 0.1 | 0.1 | 0.2 | 0.3 | 0.2 | 0.2 | 0.7 | 0.5 | 0.7 | 0.4 | 0.5 | 0.4 | 0.4 | 0.2 | 0.5 | 0.3 | 0.1 | 0.4 | Control Serum Blood-Bank Looped peptides [3]: 0.5; Control serum Blood-bank linear peptides [3]: 0.7; Control serum LUMC linear peptides [3]: 0.8; Control serum LUMC looped peptides [3]: 0.4; Binding of antibody 03-018 to linear peptides of the N protein of SARS-CoV Urbani [4]: 0.1; Binding of antibody 03-018 to looped/cyclic peptides of the N protein of SARS-CoV Urbani [4]: 0.2 |

Source: patent US20070128217A1 (priority 2003, published 2007)
